Columns and labels:
[1] = 1-Octanol-citrate buffer partition coefficient, log P of the compound at pH 4.0 by UV spectrometry; assay type: physicochemical
Rattus norvegicus [2] = test: (§1) Antiallergic activity in anti-Nippostrongylus brasiliensis homocytotropic antibody-injected Sprague-Dawley rat assessed as inhibition of passive cutaneous anaphylaxis reaction at 25 mg/kg, po administered 8 mins prior to worm extract antigen challenge measured 45 mins following antigen challenge by Evans blue dye staining; assay type: functional
Rattus norvegicus [3] = test: as §1, with “at 10” for “at 25”, “mg/kg, ip” for “mg/kg, po”, “administered 15” for “administered 8”; assay type: functional; conditions: route intraperitoneal; for inhibition in vivo at 10 mg/kg: Rattus norvegicus, Sprague-Dawley, ip
Rattus norvegicus [4] = test: as §1, with “at 5” for “at 25”, “mg/kg, ip” for “mg/kg, po”, “administered 15” for “administered 8”; assay type: functional; conditions: route intraperitoneal

logD [1]	SMILES	inhibition in vivo at 25 mg/kg (Rattus norvegicus [2])	inhibition in vivo at 10 mg/kg (Rattus norvegicus [3])	log(%) (Rattus norvegicus [3])	inhibition in vivo at 5 mg/kg (Rattus norvegicus [4])
2.33	O=C(O)c1ccc2oc3ccc(OCC(O)CO)cc3c(=O)c2c1 (stereo not given)	19%	78%	1.89	–
–	O=C(O)c1ccc2oc3ccc(OCCO)cc3c(=O)c2c1	100%	100%	–	100%
3.8	O=C(O)c1ccc2oc3ccc(OCC(O)CSc4ccccc4)cc3c(=O)c2c1 (stereo not given)	22%	100%	2	88%
–	O=C(O)c1ccc2oc3ccc(OCC(O)CSc4ccc(F)cc4)cc3c(=O)c2c1 (stereo not given)	–	–	–	38%
–	O=C(O)c1ccc2oc3ccc(OCC(O)CSc4ccc(Cl)cc4)cc3c(=O)c2c1 (stereo not given)	–	–	–	37%
–	O=C(O)c1ccc2oc3ccc(OCC(O)CSc4ccc(Cl)c(Cl)c4)cc3c(=O)c2c1 (stereo not given)	–	–	–	7%
–	O=C(O)c1ccc2oc3ccc(OCC(O)CSc4ccc(Br)cc4)cc3c(=O)c2c1 (stereo not given)	–	–	–	14%
–	COc1ccc(SCC(O)COc2ccc3oc4ccc(C(=O)O)cc4c(=O)c3c2)cc1 (stereo not given)	–	–	–	51%
2.81	CSCC(O)COc1ccc2oc3ccc(C(=O)O)cc3c(=O)c2c1 (stereo not given)	48%	71%	1.85	–
2.32	O=C(O)c1ccc2oc3ccc(OCC(O)CSCCO)cc3c(=O)c2c1 (stereo not given)	0%	100%	2	–
3.06	CC(C)SCC(O)COc1ccc2oc3ccc(C(=O)O)cc3c(=O)c2c1 (stereo not given)	–	38%	1.54	–
2.83	CC(C)(C)SCC(O)COc1ccc2oc3ccc(C(=O)O)cc3c(=O)c2c1 (stereo not given)	–	83%	1.92	–
2.95	O=C(O)c1ccc2oc3ccc(OCC(O)CSC4CCCCC4)cc3c(=O)c2c1 (stereo not given)	–	39%	1.59	–
2.58	O=C(O)c1ccc2oc3ccc(OCC(O)CSC45CC6CC(CC(C6)C4)C5)cc3c(=O)c2c1 (stereo not given)	–	16%	1.2	–
2.81	CCCCCCCSCC(O)COc1ccc2oc3ccc(C(=O)O)cc3c(=O)c2c1 (stereo not given)	–	17%	1.23	–
2.13	COCC(O)COc1ccc2oc3ccc(C(=O)O)cc3c(=O)c2c1 (stereo not given)	–	29%	1.46	–
2.31	O=C(O)c1ccc2oc3ccc(OCC(O)COCCO)cc3c(=O)c2c1 (stereo not given)	–	77%	1.89	–
2.08	COCCOCC(O)COc1ccc2oc3ccc(C(=O)O)cc3c(=O)c2c1 (stereo not given)	15%	99%	2	–
3.14	O=C(O)c1ccc2oc3ccc(OCC(O)COCC(F)(F)F)cc3c(=O)c2c1 (stereo not given)	0%	100%	2	–
–	O=C(O)c1ccc2oc3ccc(OCC(O)C[S+]([O-])c4ccccc4)cc3c(=O)c2c1 (stereo not given)	–	–	–	42%
1.36	C[S+]([O-])CC(O)COc1ccc2oc3ccc(C(=O)O)cc3c(=O)c2c1 (stereo not given)	0%	100%	2	–
–	O=C(O)c1cc(=O)c2c(OCC(O)COc3cccc4oc(C(=O)O)cc(=O)c34)cccc2o1 [CROMOLYN SODIUM]	–	89%	–	–
